In experiment [1] the test system is H1299 human non-small cell lung cancer-cells. Kind of experiment: Cancer cell viability by cellular ATP levels (ViaLight), H1299. It counts as cell-based. The settings on record: NCI-H1299, 72 h, 3 days of incubation, ATP levels relative to untreated control. The method, then:
(§1) Selected cell lines included C33A cervical carcinoma cells and H1299 human non-small cell lung cancer-cells (American Type Culture Collection, Manassas, Va. USA), which were cultured in the media recommended by the American Type Culture Collection. The cells lines were plated in 96-well microtiter plates (PerkinElmer Life Sciences Inc, Boston, Mass., USA) at a confluency that allowed them to reach confluence after 4 days of growth. One day after plating, the cells were treated with various concentrations of Compounds. Stock solutions of the Compounds were prepared in dimethyl sulfoxide (Sigma-Aldrich Inc., St. Louis, Mo., USA), diluted in the recommended media and then added to the cells. The total dimethyl sulfoxide on the cells was 0.1%. After 3 days of incubation the ATP levels in the cells were quantified using a luminescent ViaLight detection system (Bio-Whittaker, MD, USA). The results were plotted relative to untreated control cells, which were set at a value of 100. The IC50s were determined using a best-fit sigmoidal dose response curve with variable slope.

Experiment [2] relates to C33A cervical carcinoma cells. The experiment can be described thus: Cancer cell viability by cellular ATP levels (ViaLight), C33A. The settings on record: Homo sapiens, C-33-A, 72 h, 3 days of incubation, ATP levels relative to untreated control. It counts as cell-based. As for the experimental part: as §1

For the compound `COC1=CC(c2ccc(OC)c(F)c2)=NC1=Cc1[nH]c(C)cc1C` [Compound 26, 2-((5-(3-fluoro-4-methoxyphenyl)-3-methoxy-2H-pyrrol-2-ylidene)methyl)-3,5-dimethyl-1H-pyrrole], the half-maximal inhibitory concentration (IC50) (as a rule, the point on the concentration scale where inhibition reaches its midpoint) came out at 3.65 µM in experiment [1] and 0.849 µM in experiment [2].
`COC1=CC(c2cccnc2Cl)=NC1=Cc1[nH]c(C)cc1C` [Compound 33, 2-chloro-3-(4-methoxy-5-((3,5-dimethyl-1H-pyrrol-2-yl)methylene)-5H-pyrrol-2-yl)pyridine]: the IC50 is 15.9 µM in experiment [1] and 8.73 µM in experiment [2].
Consider `COC1=CC(c2ccc3c(c2)OCC3)=NC1=Cc1[nH]c(C)cc1C` [Compound 31, 2-((5-(2,3-dihydrobenzofuran-6-yl)-3-methoxy-2H-pyrrol-2-ylidene)methyl)-3,5-dimethyl-1H-pyrrole], for which the values for the half-inhibitory concentration (IC50) in experiment [1] and in experiment [2] were 0.668 µM and 0.212 µM, respectively.
Turning to `COC1=CC(c2cccc3ncccc23)=NC1=Cc1[nH]c(C)cc1C` [Compound 4, 5-(4-methoxy-5-((3,5-dimethyl-1H-pyrrol-2-yl)methylene)-5H-pyrrol-2-yl)quinoline], the half-maximal inhibitory concentration (IC50) in experiment [1] and in experiment [2] was 16.6 µM in each case.
Turning to `COC1=CC(c2cccs2)=NC1=Cc1[nH]c(C)cc1C` [Compound 6, 2-((3-methoxy-5-(thiophen-2-yl)-2H-pyrrol-2-ylidene)methyl)-3,5-dimethyl-1H-pyrrole], the IC50 in experiment [1] turned out to be 8.5 µM; in experiment [2] it was 6.5 µM.
Consider `COC1=CC(c2cnn(Cc3ccccc3)c2)=NC1=Cc1[nH]c(C)cc1C` [Compound 37, 1-benzyl-4-(4-methoxy-5-((3,5-dimethyl-1H-pyrrol-2-yl)methylene)-5H-pyrrol-2-yl)-1H-pyrazole], for which the IC50 in experiment [1] amounted to 1.65 µM; in experiment [2] it was 0.181 µM.
Consider `COC1=CC(c2ccco2)=NC1=Cc1[nH]c(C)cc1C` [Compound 13, 2-((5-(furan-2-yl)-3-methoxy-2H-pyrrol-2-ylidene)methyl)-3,5-dimethyl-1H-pyrrole], for which the results for the IC50 in experiment [1] and in experiment [2] were 40 µM and 2 µM, respectively.
For the compound `COC1=CC(c2ccc(OCCN3CCCC3)cc2)=NC1=Cc1[nH]c(C)cc1C` [Compound 21, 2-((5-(4-(2-(pyrrolidin-1-yl)ethoxy)phenyl)-3-methoxy-2H-pyrrol-2-ylidene)methyl)-3,5-dimethyl-1H-pyrrole], the IC50 was 1.34 µM in experiment [1] and 0.69 µM in experiment [2].
The corresponding values for `COC1=CC(c2ccc(Br)s2)=NC1=Cc1[nH]c(C)cc1C` [Compound 7, 2-((5-(5-bromothiophen-2-yl)-3-methoxy-2H-pyrrol-2-ylidene)methyl)-3,5-dimethyl-1H-pyrrole] are 15 µM and 9.5 µM.
With `COC1=CC(c2ccc3c(c2)OCO3)=NC1=Cc1[nH]c(C)cc1C` [Compound 20, 2-((5-(benzo[d][1,3]dioxol-5-yl)-3-methoxy-2H-pyrrol-2-ylidene)methyl)-3,5-dimethyl-1H-pyrrole], the half-inhibitory concentration (IC50) in experiment [1] is 0.55 µM; in experiment [2] it was 0.21 µM.
Consider `COC1=CC(c2ccc(C(=O)N3CCCC3)cc2)=NC1=Cc1[nH]c(C)cc1C` [Compound 25, (4-(4-methoxy-5-((3,5-dimethyl-1H-pyrrol-2-yl)methylene)-5H-pyrrol-2-yl)phenyl)(pyrrolidin-1-yl)methanone], for which the IC50 in experiment [1] worked out at 16.5 µM; in experiment [2], 7.75 µM.
Take `COC1=CC(c2ccc(N(C)C)cc2)=NC1=Cc1[nH]c(C)cc1C` [Compound 22, 4-(4-methoxy-5-((3,5-dimethyl-1H-pyrrol-2-yl)methylene)-5H-pyrrol-2-yl)-N,N-dimethylbenzenamine]: the IC50 in experiment [1] is 0.42 µM; in experiment [2], 0.29 µM.
The corresponding values for `COC1=CC(c2ccc(F)nc2)=NC1=Cc1[nH]c(C)cc1C` [Compound 39, 2-fluoro-5-(4-methoxy-5-((3,5-dimethyl-1H-pyrrol-2-yl)methylene)-5H-pyrrol-2-yl)pyridine] are 20 µM and 7.65 µM.
The corresponding values for `COc1ccc(C2=NC(=Cc3[nH]c(C)cc3C)C(OCc3ccccc3)=C2)cc1OC` [Compound 43, 3-(benzyloxy)-5-(3,4-dimethoxyphenyl)-2-((3,5-dimethyl-1H-pyrrol-2-yl)methylene)-2H-pyrrole] are 0.709 µM and 0.131 µM.
For `COC1=CC(c2ccc(C=O)cc2)=NC1=Cc1[nH]c(C)cc1C` [Compound 9, 4-(4-methoxy-5-((3,5-dimethyl-1H-pyrrol-2-yl)methylene)-5H-pyrrol-2-yl)benzaldehyde], the results for the IC50 in experiment [1] and in experiment [2] were 21.6 µM and 10.6 µM, respectively.
Regarding `COC1=CC(c2ccc(F)cc2F)=NC1=Cc1[nH]c(C)cc1C` [Compound 3, 2-((5-(2,4-difluorophenyl)-3-methoxy-2H-pyrrol-2-ylidene)methyl)-3,5-dimethyl-1H-pyrrole], the concentration for half-maximal inhibition (IC50) in experiment [1] amounted to 10 µM; in experiment [2], 3 µM.
On to `COC1=CC(c2cc(OC)c(OC)c(OC)c2)=NC1=Cc1[nH]c(C)cc1C` [Compound 28, 2-((3-methoxy-5-(3,4,5-trimethoxyphenyl)-2H-pyrrol-2-ylidene)methyl)-3,5-dimethyl-1H-pyrrole], for which the values for the IC50 in experiment [1] and in experiment [2] were 2.38 µM and 0.627 µM, respectively.
With `COC1=CC(c2ccc(OC)cc2OC)=NC1=Cc1[nH]c(C)cc1C` [Compound 16, 2-((3-methoxy-5-(2,4-dimethoxyphenyl)-2H-pyrrol-2-ylidene)methyl)-3,5-dimethyl-1H-pyrrole], the IC50 in experiment [1] was determined as 4.5 µM; in experiment [2], 3 µM.
Regarding `COC1=CC(c2ccsc2)=NC1=Cc1[nH]c(C)cc1C` [Compound 15, 2-((3-methoxy-5-(thiophen-3-yl)-2H-pyrrol-2-ylidene)methyl)-3,5-dimethyl-1H-pyrrole], the IC50 in experiment [1] turned out to be 6.6 µM; in experiment [2], 0.75 µM.
Consider `COC1=CC(c2cccnc2OC)=NC1=Cc1[nH]c(C)cc1C` [Compound 30, 2-methoxy-3-(4-methoxy-5-((3,5-dimethyl-1H-pyrrol-2-yl)methylene)-5H-pyrrol-2-yl)pyridine], for which the IC50 in experiment [1] amounted to 5.69 µM; in experiment [2], 1.2 µM.
On to `COC1=CC(c2cncnc2)=NC1=Cc1[nH]c(C)cc1C` [Compound 35, 5-(4-methoxy-5-((3,5-dimethyl-1H-pyrrol-2-yl)methylene)-5H-pyrrol-2-yl)pyrimidine], for which the half-inhibitory concentration (IC50) in experiment [1] was 15.9 µM; in experiment [2], 8.96 µM.
As to `COC1=CC(c2ccc(F)cc2)=NC1=Cc1[nH]c(C)cc1C` [Compound 5, 5-(4-fluorophenyl)-3-methoxy-2-((3,5-dimethyl-1H-pyrrol-2-yl)methylene)-2H-pyrrole], the IC50 was 10 µM in experiment [1] and 2.2 µM in experiment [2].
With `COC1=CC(c2ccc(Br)cc2)=NC1=Cc1[nH]c(C)cc1C` [Compound 29, 2-((5-(4-bromophenyl)-3-methoxy-2H-pyrrol-2-ylidene)methyl)-3,5-dimethyl-1H-pyrrole], the concentration for half-maximal inhibition (IC50) in experiment [1] amounted to 6.64 µM; in experiment [2] it was 1.15 µM.
`COC1=CC(c2cccc([N+](=O)[O-])c2)=NC1=Cc1[nH]c(C)cc1C` [Compound 12, 2-((3-methoxy-5-(3-nitrophenyl)-2H-pyrrol-2-ylidene)methyl)-3,5-dimethyl-1H-pyrrole]: the IC50 in experiment [1] amounted to 14 µM; in experiment [2] it was 15 µM.
`COC1=CC(c2ccc(NS(C)(=O)=O)cc2)=N/C1=C\c1[nH]c(C)cc1C` [Compound 8, N-4-(4-methoxy-5-((3,5-dimethyl-1H-pyrrol-2-yl)methylene)-5H-pyrrol-2-yl)-phenyl-methylsulfonamide]: the IC50 in experiment [1] is 10 µM; in experiment [2], 8 µM.
`COC1=CC(c2ccc(SC(C)C)cc2)=NC1=Cc1[nH]c(C)cc1C` [Compound 36, 2-((5-(4-(isopropylthio)phenyl)-3-methoxy-2H-pyrrol-2-ylidene)methyl)-3,5-dimethyl-1H-pyrrole]: the IC50 in experiment [1] was determined as 1.43 µM; in experiment [2] it was 1.19 µM.
On the same counts, the results for `COC1=CC(c2ccc(COC(C)(C)C)cc2)=NC1=Cc1[nH]c(C)cc1C` [Compound 41, 2-((5-(4-(tert-butoxymethyl)phenyl)-3-methoxy-2H-pyrrol-2-ylidene)methyl)-3,5-dimethyl-1H-pyrrole] are 10.1 µM and 4.17 µM.
`COC1=CC(c2ccc3c(c2)OCCO3)=NC1=Cc1[nH]c(C)cc1C` [Compound 23, 2-((5-(2,3-dihydrobenzo[b][1,4]dioxin-7-yl)-3-methoxy-2H-pyrrol-2-ylidene)methyl)-3,5-dimethyl-1H-pyrrole]: the half-maximal inhibitory concentration (IC50) stood at 7.55 µM in experiment [1] and 1.6 µM in experiment [2].
Take `Cc1cc(C)c(C=C2N=C(c3ccc4c(c3)OCO4)C=C2OCc2ccccc2)[nH]1` [Compound 44, 5-(benzo[d][1,3]dioxol-5-yl)-3-(benzyloxy)-2-((3,5-dimethyl-1H-pyrrol-2-yl)methylene)-2H-pyrrole]: the results for the IC50 in experiment [1] and in experiment [2] were 8.3 µM and 2.16 µM, respectively.
In the case of `COC1=CC(c2cnc(OC)nc2OC)=NC1=Cc1[nH]c(C)cc1C` [Compound 32, 2,4-dimethoxy-5-(4-methoxy-5-((3,5-dimethyl-1H-pyrrol-2-yl)methylene)-5H-pyrrol-2-yl)pyrimidine], the IC50 in experiment [1] came to 6.87 µM; in experiment [2] it was 6.33 µM.
On the same counts, the results for `COC1=CC(c2ccc(OC)c(C)c2)=NC1=Cc1[nH]c(C)cc1C` [Compound 24, 2-((3-methoxy-5-(4-methoxy-3-methylphenyl)-2H-pyrrol-2-ylidene)methyl)-3,5-dimethyl-1H-pyrrole] are 1.06 µM and 0.503 µM.

For the origin of these results see US8420693B2, “Dipyrrole compounds, compositions, and methods for treating cancer or viral diseases” (Gemin X Pharmaceuticals Canada Inc., priority 2004, dated 2013).
